Entries after “also recorded” stand apart in the source; their conditions may differ.
Key:
[1] = Change of FEV1 in dupilumab-treated subjects stratified by FEV1-PS; format: in vivo, human; conditions: European subjects
Source text: The covariates were AGE, SEX, STUDYID (study identifier), ICS_FL (taking inhaled corticosteroids at baseline; yes/no), EOSBL_300 FL (eosinophils >300 at baseline), ASMANUM_LOG (exacerbation history for the previous year), HGTBL (height baseline), FEV1BL, and PC1-4 (principal components 1-4). The FEV1-PS was divided into quartiles and ranked from lowest to highest, the number at the bottom of each bar is the number of subjects in each group, and the number inside each bar is the change in FEV1 values at week 12.
The covariates were AGE, SEX, STUDYID, ICS_FL, EOSBL_300 FL, ASMANUM_LOG, HGTBL, FEV1BL, and PC1-4.

[2] = Annualized exacerbation rate in dupilumab-treated subjects stratified by FEV1-PS; format: in vivo, human; conditions: European subjects, by FEV1-PS quartile (FIG. 3)
Source text: The covariates were AGE, SEX, STUDYID, ICS_FL, EOSBL_300 FL, ASMANUM_LOG, HGTBL, FEV1BL, and PC1-4. The FEV1-PS was divided into quartiles and ranked from lowest to highest, the number at the bottom of each bar is the number of subjects in each group, and the number inside each bar is the change in annualized exacerbation rate.

Substance: dupilumab
- longitudinal increase of change of FEV1 ([1]; by FEV1-PS (FIG. 2)): significantly associated with better FEV1 improvement; also recorded: greatest FEV1 improvement
- change of FEV1 at week 12 ([1]; by FEV1-PS quartile, compared to placebo-treated patients (FIG. 1)): significantly associated with better FEV1 improvement; also recorded: greatest improvement in FEV1
- annualized exacerbation rates [2]: not associated with differences in annualized exacerbation rates
